Reference: ChEMBL document CHEMBL1201862, “PubChem BioAssay data set” (2004)
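Results reflect a 48-hour exposure of cells in 96-well plates to compound at five concentrations. GI50 = concentration required for 50% inhibition of growth.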 Activity calls are given as the source filed them. Rule as the data show it: active = GI50 up to about 1.1 µM and inactive = higher.

Key:
Test in all cases: inhibition of tumour cell growth, NCI panel, 48 h
[1] = tested on: UACC-62
[2] = tested on: OVCAR-5
[3] = tested on: SK-MEL-5
[4] = tested on: A498
[5] = tested on: SN12C
[6] = tested on: HCT-116
[7] = tested on: M19-MEL
[8] = tested on: OVCAR-8
[9] = tested on: SW-620
[10] = tested on: SF-539
[11] = tested on: HT-29
[12] = tested on: DMS-114
[13] = tested on: DMS-273
[14] = tested on: U-251
[15] = tested on: NCI-H522
[16] = tested on: K562
[17] = tested on: Malme-3M
[18] = tested on: HOP-18
[19] = tested on: HCT-15
[20] = tested on: NCI-H460
[21] = tested on: RXF 631
[22] = tested on: XF498
[23] = tested on: NCI-H23
[24] = tested on: COLO 205
[25] = tested on: LXFL 529
[26] = tested on: ACHN
[27] = tested on: SK-OV-3
[28] = tested on: DLD-1
[29] = tested on: NCI-H226
[30] = tested on: KM-20L2
[31] = tested on: SK-MEL-2
[32] = tested on: HOP-92
[33] = tested on: M14
[34] = tested on: SK-MEL-28
[35] = tested on: SF-295
[36] = tested on: LOX IMVI
[37] = tested on: SNB-75
[38] = tested on: SNB-19
[39] = tested on: 786-0
[40] = tested on: SF-268
[41] = tested on: CCRF-CEM
[42] = tested on: HCC 2998
[43] = tested on: HL-60
[44] = tested on: SNB-78
[45] = tested on: A549
[46] = tested on: RXF 393
[47] = tested on: UO-31
[48] = tested on: RPMI-8226
[49] = tested on: OVCAR-3
[50] = tested on: SR
[51] = tested on: MOLT-4
[52] = tested on: UACC-257
[53] = tested on: IGROV-1
[54] = tested on: EKVX
[55] = tested on: KM12
[56] = tested on: HOP-62
[57] = tested on: TK-10
[58] = tested on: OVCAR-4

ClCc1ccc(C2OCCO2)cc1
GI50 [1]: > 36.6 µM (inactive) | GI50 [2]: > 48.9 µM (inactive) | GI50 [3]: 24.8 µM (inactive) | GI50 [4]: 20.8 µM (inactive) | GI50 [5]: 16.6 µM (inactive) | GI50 [6]: > 35.6 µM (inactive) | GI50 [7]: 14 µM (inactive) | GI50 [8]: 17.5 µM (inactive) | GI50 [9]: 16.8 µM (inactive) | GI50 [10]: > 42.3 µM (inactive) | GI50 [11]: 15.9 µM (inactive) | GI50 [12]: > 24 µM (inactive) | GI50 [13]: 18.3 µM (inactive) | GI50 [14]: 12.2 µM (inactive) | GI50 [15]: 14.8 µM (inactive) | GI50 [16]: > 31.6 µM (inactive) | GI50 [17]: 20.3 µM (inactive) | GI50 [18]: 37.5 µM (inactive) | GI50 [19]: 16.7 µM | GI50 [20]: 19.2 µM (inactive) | GI50 [21]: > 100 µM (inactive) | GI50 [22]: 18.8 µM (inactive) | GI50 [23]: 12.2 µM (inactive) | GI50 [24]: 19.1 µM (inactive) | GI50 [25]: 17.1 µM (inactive) | GI50 [26]: > 42.4 µM (inactive) | GI50 [27]: 46.9 µM (inactive) | GI50 [28]: 17.2 µM (inactive) | GI50 [29]: 16.9 µM (inactive) | GI50 [30]: > 45.9 µM (inactive) | GI50 [31]: 21.1 µM (inactive) | GI50 [32]: 18.8 µM (inactive) | GI50 [33]: 13.6 µM (inactive) | GI50 [34]: > 40.7 µM (inactive) | GI50 [35]: 17.9 µM (inactive) | GI50 [36]: 7.23 µM (inactive) | GI50 [37]: 22.4 µM (inactive) | GI50 [38]: > 43 µM (inactive) | GI50 [39]: 23.3 µM (inactive) | GI50 [40]: > 100 µM (inactive) | GI50 [41]: > 37.7 µM (inactive) | GI50 [42]: 17.8 µM (inactive) | GI50 [43]: 3.36 µM (inactive) | GI50 [44]: 14.4 µM (inactive) | GI50 [45]: > 51.4 µM (inactive) | GI50 [46]: > 45.7 µM (inactive) | GI50 [47]: > 40.7 µM (inactive) | GI50 [48]: 21.4 µM (inactive) | GI50 [49]: 22.3 µM (inactive) | GI50 [50]: 11.1 µM (inactive) | GI50 [51]: 13.8 µM (inactive) | GI50 [52]: 14.5 µM (inactive) | GI50 [53]: > 72.4 µM (inactive) | GI50 [54]: > 43.2 µM (inactive) | GI50 [55]: 12.8 µM (inactive) | GI50 [56]: 24.9 µM (inactive) | GI50 [57]: > 49 µM (inactive)

CC(C)c1cccc(C(C)C)c1NC(=S)Nc1ccccc1
GI50 [1]: > 100 µM (inactive) | GI50 [2]: > 100 µM (inactive) | GI50 [3]: 48 µM (inactive) | GI50 [4]: > 100 µM (inactive) | GI50 [5]: > 100 µM (inactive) | GI50 [6]: > 100 µM (inactive) | GI50 [7]: > 100 µM (inactive) | GI50 [8]: > 100 µM (inactive) | GI50 [9]: > 100 µM (inactive) | GI50 [10]: > 100 µM (inactive) | GI50 [11]: > 100 µM (inactive) | GI50 [12]: 43 µM (inactive) | GI50 [13]: > 100 µM (inactive) | GI50 [14]: > 100 µM (inactive) | GI50 [16]: 70.6 µM (inactive) | GI50 [17]: > 100 µM (inactive) | GI50 [18]: > 100 µM (inactive) | GI50 [19]: > 100 µM | GI50 [20]: > 100 µM (inactive) | GI50 [58]: 10.8 µM (inactive) | GI50 [21]: > 100 µM (inactive) | GI50 [22]: 0.434 µM (active) | GI50 [23]: > 100 µM (inactive) | GI50 [24]: > 100 µM (inactive) | GI50 [25]: > 100 µM (inactive) | GI50 [26]: > 100 µM (inactive) | GI50 [27]: > 100 µM (inactive) | GI50 [28]: > 100 µM (inactive) | GI50 [29]: > 100 µM (inactive) | GI50 [30]: > 100 µM (inactive) | GI50 [31]: > 100 µM (inactive) | GI50 [32]: > 100 µM (inactive) | GI50 [33]: > 100 µM (inactive) | GI50 [34]: > 100 µM (inactive) | GI50 [35]: > 100 µM (inactive) | GI50 [36]: 79.4 µM (inactive) | GI50 [37]: 36.5 µM (inactive) | GI50 [38]: > 100 µM (inactive) | GI50 [40]: > 100 µM (inactive) | GI50 [41]: 41.4 µM (inactive) | GI50 [42]: > 100 µM (inactive) | GI50 [43]: 6.81 µM (inactive) | GI50 [44]: > 100 µM (inactive) | GI50 [45]: > 100 µM (inactive) | GI50 [46]: 75.5 µM (inactive) | GI50 [47]: > 100 µM (inactive) | GI50 [48]: > 100 µM (inactive) | GI50 [49]: > 100 µM (inactive) | GI50 [50]: > 100 µM (inactive) | GI50 [51]: > 100 µM (inactive) | GI50 [52]: > 100 µM (inactive) | GI50 [53]: > 100 µM (inactive) | GI50 [54]: > 100 µM (inactive) | GI50 [55]: > 100 µM (inactive) | GI50 [56]: > 100 µM (inactive) | GI50 [57]: > 100 µM (inactive)
